We go through 15 molecules from patent publication US20220363689A1, “INHIBITOR OF BTK AND MUTANTS THEREOF” (Newave Pharmaceutical Inc., priority 2019, published 2022).

Common to all, as to assay type: biochemical
Assay [1] concerns the target T1, WT BTK (Homo sapiens, UniProt Q06187). The experiment in a line: In vitro dialysis assay (irreversibility assay), WT BTK. To be noted: reversible or irreversible/covalent inhibition after 24 h dialysis. As to the method:
The compound-enzyme complex was dialyzed against the same buffer supplemented with 40 mM ATP for 24 hr. Cumulative dialysis factor>160,000×. After dialysis, the BTK activity was measured in the presence […] and 1 mM substrate peptide and compared to that in non-dialyzed samples. Assay buffer: 100 mM HEPES, pH7.5; […]; 5 mM MgCl2; 1 mM DTT. In this study, Ibrutiib (a FDA approved irreversible BTK inhibitor) was used as a positive control and Saurosporine (a reversible BTK inhibitor) was used as a negative control.

In assay [2] the target is T1, WT BTK. In words: Caliper-based kinase assay, WT BTK. As to conditions: 0.5 nM enzyme, ATP 16 μM, room temperature 3 h; read-out: WT BTK IC50 (nM) (irreversible inhibition). As to the method: (§1) A Caliper-based kinase assay (Caliper Life Sciences, Hopkinton, Mass.) was used to measure inhibition of WT and […] Btk kinase activity of a compound of the present disclosure. […] The reaction was then terminated with EDTA, final concentration 20 mM and the phosphorylated reaction product was quantified on a Caliper Desktop Profiler (Caliper LabChip 3000).

Assay [3] concerns the target C481S Btk (Homo sapiens, UniProt Q06187, C481S). In words: Caliper-based kinase assay, C481S BTK. To be noted: 0.5 nM enzyme, ATP 16 μM, room temperature 3 h; read-out: C481S BTK IC50 (nM) (reversible inhibition). As to the method: as §1

C481S Btk, sequence (Q06187 whole entry C481S): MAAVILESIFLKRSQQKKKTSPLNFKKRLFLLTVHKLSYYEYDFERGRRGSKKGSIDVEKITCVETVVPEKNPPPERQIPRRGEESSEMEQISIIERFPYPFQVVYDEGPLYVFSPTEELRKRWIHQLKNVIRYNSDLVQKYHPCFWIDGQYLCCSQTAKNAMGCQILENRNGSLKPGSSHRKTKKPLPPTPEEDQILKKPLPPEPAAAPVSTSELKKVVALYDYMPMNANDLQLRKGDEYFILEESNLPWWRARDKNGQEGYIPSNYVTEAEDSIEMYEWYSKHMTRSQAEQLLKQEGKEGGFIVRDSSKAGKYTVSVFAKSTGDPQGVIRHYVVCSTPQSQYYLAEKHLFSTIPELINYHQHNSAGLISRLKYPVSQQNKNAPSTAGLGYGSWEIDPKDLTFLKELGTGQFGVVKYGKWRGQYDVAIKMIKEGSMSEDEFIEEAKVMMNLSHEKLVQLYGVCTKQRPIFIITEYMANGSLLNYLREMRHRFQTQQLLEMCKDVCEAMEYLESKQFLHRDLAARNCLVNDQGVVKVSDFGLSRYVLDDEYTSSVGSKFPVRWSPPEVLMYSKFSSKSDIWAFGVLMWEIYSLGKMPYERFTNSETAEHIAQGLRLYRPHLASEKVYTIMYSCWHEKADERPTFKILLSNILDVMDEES
T1 sequence (Q06187 whole entry): as the sequence (Q06187 whole entry C481S) above, with S481C counted along it

Broadly, the IC50 is the concentration needed to halve the response being measured. Turning to `C=CC(=O)Nc1cc(Nc2nc(-c3ccnc(N4CCn5c(cc6c5CC(C)(C)C6)C4=O)c3CO)cn(C)c2=O)ccc1N1CCC(N2CCN(C)CC2)CC1` [Example 21, N-(5-[[6-(2-[4,4-dimethyl-9-oxo-1,10-diazatricyclo[6.4.0.0^[2,6]]dodeca-2(6),7-dien-10-yl]-3-(hydroxymethyl)pyridin-4-yl)-4-methyl-3-oxopyrazin-2-yl]amino]-2-[4-(4-methylpiperazin-1-yl)piperidin-1-yl]phenyl)prop-2-enamide], in assay [1], the “Conclusion (WT BTK)” value was “Irreversible/covalent inhibition”. Further, the IC50 worked out at 0.04 nM in assay [2] and 0.4 nM in assay [3].

On to `C=CC(=O)Nc1cc(Nc2nc(-c3ccnc(N4CCn5c(cc6c5CC(C)(C)C6)C4=O)c3CO)cn(C)c2=O)ccc1N1CCC(N2CCC(F)(F)CC2)CC1` [Example 20, N-(2-[4,4-difluoro-[1,4′-bipiperidin]-1′-yl]-5-[[6-(2-[4,4-dimethyl-9-oxo-1,10-diazatricyclo[6.4.0.0^[2,6]]dodeca-2(6),7-dien-10-yl]-3-(hydroxymethyl)pyridin-4-yl)-4-methyl-3-oxopyrazin-2-yl]amino]phenyl)prop-2-enamide], for which the “Conclusion (WT BTK)” value in assay [1] was “Irreversible/covalent inhibition”. Also, the IC50 in assay [2] was determined as 0.053 nM; in assay [3] it was 0.4 nM.

In the case of `C=CC(=O)Nc1cc(Nc2nc(-c3ccnc(N4CCCn5c(cc6c5CC(C)(C)C6)C4=O)c3CO)cn(C)c2=O)ccc1N1CCN(C2COC2)C[C@@H]1C` [Example 29, N-(5-[[6-(2-[4,4-dimethyl-9-oxo-1,10-diazatricyclo[6.5.0.0^[2,6]]trideca-2(6),7-dien-10-yl]-3-(hydroxymethyl)pyridin-4-yl)-4-methyl-3-oxopyrazin-2-yl]amino]-2-[(2S)-2-methyl-4-(oxetan-3-yl)piperazin-1-yl]phenyl)prop-2-enamide], in assay [1], the “Conclusion (WT BTK)” value is recorded as “Irreversible/covalent inhibition”. In addition, the values for the IC50 in assay [2] and in assay [3] were 0.076 nM and 0.32 nM, respectively.

Consider `C=CC(=O)Nc1cc(Nc2nc(-c3ccnc(N4CCn5c(cc6c5CC(C)(C)C6)C4=O)c3CO)cn(C)c2=O)ccc1N1CCC(N2CCOCC2)CC1C` (stereo not drawn) [Example 12, N-(5-((6-(2-(7,7-dimethyl-1-oxo-1,3,4,6,7,8-hexahydro-2H-cyclopenta[4,5]pyrrolo[1,2-a]pyrazin-2-yl)-3-(hydroxymethyl)pyridin-4-yl)-4-methyl-3-oxo-3,4-dihydropyrazin-2-yl)amino)-2-(2-methyl-4-morpholinopiperidin-1-yl)phenyl)acrylamide], for which the “Conclusion (WT BTK)” value in assay [1] is listed as “Irreversible/covalent inhibition”. The IC50 in assay [2] was 0.046 nM; in assay [3], 0.25 nM.

As to `C=CC(=O)Nc1cc(Nc2nc(-c3ccnc(N4CCn5c(cc6c5CC(C)(C)C6)C4=O)c3CO)cn(C)c2=O)ccc1C1C(=O)N(C)CCN1C1COC1` (stereo not drawn) [Example 41], the “Conclusion (WT BTK)” value in assay [1] is given as “Irreversible/covalent inhibition”. The IC50 in assay [2] worked out at 0.27 nM; in assay [3], 0.61 nM.

As to `C=CC(=O)Nc1cc(Nc2nc(-c3ccnc(N4CCn5c(cc6c5CC(C)(C)C6)C4=O)c3C)cn(C)c2=O)ccc1N1CCC(N2CCOCC2)CC1.Cl` [Example 18, N-(5-[[6-(2-[4,4-dimethyl-9-oxo-1,10-diazatricyclo[6.4.0.0^[2,6]]dodeca-2(6),7-dien-10-yl]-3-methylpyridin-4-yl)-4-methyl-3-oxopyrazin-2-yl]amino]-2-[4-(morpholin-4-yl)piperidin-1-yl]phenyl)prop-2-enamide hydrochloride], in assay [1], the “Conclusion (WT BTK)” value is “Irreversible/covalent inhibition”. Moreover, the IC50 in assay [2] was 0.18 nM; in assay [3] it was 11.4 nM.

As for `C=CC(=O)Nc1cc(Nc2nc(-c3ccnc(N4CCn5c(cc6c5CC(C)(C)C6)C4=O)c3CO)cn(C)c2=O)ccc1N1CCN(C2CCOCC2)C[C@@H]1C` [Example 22, N-(5-[[6-(2-[4,4-dimethyl-9-oxo-1,10-diazatricyclo[6.4.0.0^[2,6]]dodeca-2(6),7-dien-10-yl]-3-(hydroxymethyl)pyridin-4-yl)-4-methyl-3-oxopyrazin-2-yl]amino]-2-[(2S)-2-methyl-4-(oxan-4-yl)piperazin-1-yl]phenyl)prop-2-enamide], the “Conclusion (WT BTK)” value in assay [1] is given as “Irreversible/covalent inhibition”. For the same molecule, the figures for the IC50 in assay [2] and in assay [3] were 0.046 nM and 0.48 nM, respectively.

In the case of `C=CC(=O)Nc1cc(Nc2nc(-c3ccnc(N4CCn5c(cc6c5CC(C)(C)C6)C4=O)c3C)cn(C)c2=O)ccc1N1CCC(N2CCOCC2)CC1C` [Example 17, N-(5-[[6-(2-[4,4-dimethyl-9-oxo-1,10-diazatricyclo[6.4.0.0^[2,6]]dodeca-2(6),7-dien-10-yl]-3-methylpyridin-4-yl)-4-methyl-3-oxopyrazin-2-yl]amino]-2-[(2S)-2-methyl-4-(morpholin-4-yl)piperidin-1-yl]phenyl)prop-2-enamide], in assay [1], the “Conclusion (WT BTK)” value is reported as “Irreversible/covalent inhibition”. The IC50 worked out at 0.1 nM in assay [2] and 7.1 nM in assay [3].

As to `C=CC(=O)Nc1cc(Nc2nc(-c3ccnc(N4CCn5c(cc6c5CC(C)(C)C6)C4=O)c3CO)cn(C)c2=O)ccc1N1CCN(C2CCC(F)(F)CC2)C[C@@H]1C` [Example 23, N-[2-[(2S)-4-(4,4-difluorocyclohexyl)-2-methylpiperazin-1-yl]-5-[[6-(2-[4,4-dimethyl-9-oxo-1,10-diazatricyclo[6.4.0.0^[2,6]]dodeca-2(6),7-dien-10-yl]-3-(hydroxymethyl)pyridin-4-yl)-4-methyl-3-oxopyrazin-2-yl]amino]phenyl]prop-2-enamide], the “Conclusion (WT BTK)” value in assay [1] is listed as “Irreversible/covalent inhibition”. The IC50 in assay [2] was 0.048 nM; in assay [3], 0.49 nM.

For the molecule `C=CC(=O)Nc1cc(Nc2nc(-c3ccnc(N4CCn5c(cc6c5CC(C)(C)C6)C4=O)c3CO)cn(C)c2=O)ccc1N1CCN(C2CCOC2)C[C@@H]1C` (stereo partly drawn) [Example 39, N-(5-[[6-(2-[4,4-dimethyl-9-oxo-1,10-diazatricyclo[6.4.0.0^[2,6]]dodeca-2(6),7-dien-10-yl]-3-(hydroxymethyl)pyridin-4-yl)-4-methyl-3-oxopyrazin-2-yl]amino]-2-[(2S)-2-methyl-4-(oxolan-3-yl)piperazin-1-yl]phenyl)prop-2-enamide], the “Conclusion (WT BTK)” value in assay [1] is “Irreversible/covalent inhibition”. Moreover, the IC50 worked out at 0.06 nM in assay [2] and 0.34 nM in assay [3].

Turning to `C=CC(=O)Nc1cc(Nc2nc(-c3ccnc(N4CCn5c(cc6c5CC(C)(C)C6)C4=O)c3CO)cn(C)c2=O)ccc1C1CN(C)C(=O)CN1C1COC1` (stereo not drawn) [Example 43], the “Conclusion (WT BTK)” value in assay [1] was “Irreversible/covalent inhibition”. In addition, the IC50 came to 0.35 nM in assay [2] and 0.5 nM in assay [3].

As for `C=CC(=O)Nc1cc(Nc2nc(-c3ccnc(N4CCn5c(cc6c5CC(C)(C)C6)C4=O)c3CO)cn(C)c2=O)ccc1N1CCN(C2COC2)C[C@@H]1C` [Example 3, (S)—N-(5-((6-(2-(7,7-dimethyl-1-oxo-1,3,4,6,7,8-hexahydro-2H-cyclopenta[4,5]pyrrolo[1,2-a]pyrazin-2-yl)-3-(hydroxymethyl)pyridin-4-yl)-4-methyl-3-oxo-3,4-dihydropyrazin-2-yl)amino)-2-(2-methyl-4-(oxetan-3-yl)piperazin-1-yl)phenyl)acrylamide], the “Conclusion (WT BTK)” value in assay [1] was “Irreversible/covalent inhibition”. The figures for the IC50 in assay [2] and in assay [3] were 0.14 nM and 0.72 nM, respectively.

For `C=CC(=O)Nc1cc(Nc2nc(-c3ccnc(N4CCc5c(sc6c5CCC6(C)C)C4=O)c3CO)cn(C)c2=O)ccc1N1CCN(C2COC2)C[C@@H]1C` [Example 35, N-(5-[[6-(2-[5,5-dimethyl-9-oxo-7-thia-10-azatricyclo[6.4.0.0^[2,6]]dodeca-1(8),2(6)-dien-10-yl]-3-(hydroxymethyl)pyridin-4-yl)-4-methyl-3-oxopyrazin-2-yl]amino]-2-[(2S)-2-methyl-4-(oxetan-3-yl)piperazin-1-yl]phenyl)prop-2-enamide], the “Conclusion (WT BTK)” value in assay [1] is listed as “Irreversible/covalent inhibition”. Moreover, the IC50 in assay [2] is 0.13 nM; in assay [3] it was 17.9 nM.

With `C=CC(=O)Nc1cc(Nc2nc(-c3ccnc(N4CCc5c(sc6c5CCCC6)C4=O)c3CO)cn(C)c2=O)ccc1N1CCN(C2COC2)C[C@@H]1C` [Example 36, N-[5-([6-[3-(hydroxymethyl)-2-[6-oxo-8-thia-5-azatricyclo[7.4.0.0^[2,7]]trideca-1(9),2(7)-dien-5-yl]pyridin-4-yl]-4-methyl-3-oxopyrazin-2-yl]amino)-2-[(2S)-2-methyl-4-(oxetan-3-yl)piperazin-1-yl]phenyl]prop-2-enamide], the “Conclusion (WT BTK)” value in assay [1] is given as “Irreversible/covalent inhibition”. The figures for the IC50 in assay [2] and in assay [3] were 0.1 nM and 1.1 nM, respectively.

As to `C=CC(=O)Nc1cc(Nc2nc(-c3ccnc(N4CCCn5c(cc6c5CC(C)(C)C6)C4=O)c3CO)cn(C)c2=O)ccc1N1CCN([C@H]2C[C@@H](C)O[C@@H](C)C2)C[C@@H]1C` [Example 38, N-(5-[[6-(2-[4,4-dimethyl-9-oxo-1,10-diazatricyclo[6.5.0.0^[2,6]]trideca-2(6),7-dien-10-yl]-3-(hydroxymethyl)pyridin-4-yl)-4-methyl-3-oxopyrazin-2-yl]amino]-2-[(2S)-2-methyl-4-[(2R,4r,6S)-2,6-dimethyloxan-4-yl]piperazin-1-yl]phenyl)prop-2-enamide], the “Conclusion (WT BTK)” value in assay [1] is recorded as “Irreversible/covalent inhibition”. The IC50 in assay [2] came to 0.073 nM; in assay [3], 0.26 nM.
